{"source": "patent US8202855B2", "about": "“Substituted beta-lactams” (Allergan, Inc, priority 2008, dated 2012)", "tested_on": "lashes and adjacent hairs of patients having glaucoma", "assay": "Observation of lashes in glaucoma patients treated in one eye", "type": "in vivo", "conditions": "glaucoma patients treated in only one eye", "source_text": "In the course of treating patients having glaucoma, treatment may only be appropriate in one eye. […] The lash appearance on the lids of the treated eyes would have appeared quite attractive if it represented a bilateral phenomenon. As a result of its asymmetric nature, the long lashes on one side could be construed as disturbing from a cosmetic standpoint. A systemic examination was preformed as a result of the asymmetric phenomenon. It soon became apparent that this altered appearance was not an isolated finding. […] Definite differences could be identified to varying degrees in the lashes and adjacent hairs of all patients who were taking the drug on a unilateral basis for longer than 6 months.\nThe changes in the lashes were apparent on gross inspection in several patients once attention was focused on the issue. In those with light colored hair and lashes, the differences were only seen easily with the aid of the high magnification and lighting capabilities of the slit lamp biomicroscope. In the course of glaucoma follow-up examination, attention is generally immediately focused on the eye itself. As a result of the high power magnification needed only one eye is seen at a time and the eye is seen at a high enough power that the lashes are not in focus. […]"}
{"smiles": "CCNC(=O)CCC/C=C\\C[C@@H]1[C@@H](/C=C/[C@@H](O)CCc2ccccc2)[C@H](O)C[C@@H]1O", "note": "[bimatoprost]", "values": [{"measurement": "lash appearance in treated eye versus non-treated eye", "result": "longer, thicker, and fuller in the treated eye than in the non-treated eye"}]}
